The values below come from ChEMBL document CHEMBL1201862, “PubChem BioAssay data set” (2004).

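In this assay, cells in 96-well plates receive the compound at five concentrations for 48 hours. Endpoints are linearly interpolated between the surrounding concentrations. GI50 is the concentration that inhibits growth by half.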 Calls of active or inactive are those of the source. No stated cut-off is given here; in the data, active = GI50 up to about 1.1 µM and inactive = higher.

Among the test systems are ACHN; DLD-1; HCT-15; IGROV-1; MOLT-4; NCI-H460; OVCAR-3; OVCAR-8; SF-295; SK-MEL-2; SN12C; SNB-19; SNB-75; TK-10; UACC-62; CAKI-1; BT-549; DU-145; NCI/ADR-RES; SR.
Test in all cases: NCI tumour cell line growth inhibition, 48 h

For `COc1cc(O)c2c(c1O)C(=O)c1cc(C)ncc1C2=O`, the GI50 in the assay with ACHN was 24.3 µM (inactive); in the assay on DLD-1 it was 16 µM (inactive); in the assay with HCT-15, 16.6 µM; with IGROV-1, 23.1 µM (inactive); with MOLT-4, 30.8 µM (inactive); with NCI-H460 it was 13.8 µM (inactive). Moreover, the GI50 in the assay with OVCAR-3 is 16.7 µM (inactive); in the assay with OVCAR-8, 21.8 µM (inactive); in the assay on SF-295, 19 µM (inactive); in the assay with SK-MEL-2 it was 22.3 µM (inactive); in the assay on SN12C it was 17.9 µM (inactive); in the assay with SNB-19, 21.6 µM (inactive). In addition, the results for the GI50 with SNB-75, with TK-10 and in the assay on UACC-62 were 20.3 µM (inactive), > 50 µM (inactive) and 17.3 µM (inactive), respectively.
With `C[N+](C)(C)CC1CCCC/C1=N\O` (centres undefined), the GI50 with ACHN is > 100 µM (inactive); with DLD-1, > 100 µM (inactive); in the assay with HCT-15, over 100 µM; with IGROV-1, > 100 µM (inactive); with MOLT-4, > 100 µM (inactive); with NCI-H460, > 100 µM (inactive). Moreover, the GI50 in the assay with OVCAR-3, with OVCAR-8, in the assay on SF-295, with SK-MEL-2, in the assay on SN12C and with SNB-19 was > 100 µM (inactive) in each case. The GI50 in the assay on TK-10 and in the assay with UACC-62 was > 100 µM (inactive) throughout.
Take `O=C(O)C1OC(Oc2cc(O)c3c(=O)cc(-c4ccc(O)cc4)oc3c2)C(O)C(O)C1O` (centres undefined): the GI50 with ACHN, with CAKI-1, in the assay on DLD-1, in the assay with NCI-H460, in the assay with OVCAR-3 and in the assay on OVCAR-8 was > 100 µM (inactive) throughout. In addition, the GI50 with SF-295, in the assay on SK-MEL-2, in the assay on SN12C, in the assay on SNB-19, in the assay on SNB-75 and with TK-10 was > 100 µM (inactive) throughout.
As to `Cc1cc(Cl)ccc1NC1=NC(=O)C(CC(=O)Nc2ccc(Cl)cc2Cl)S1` (centres undefined), the GI50 with ACHN was > 100 µM (inactive); with CAKI-1, > 100 µM (inactive); in the assay with DLD-1 it was > 100 µM (inactive); with HCT-15 it was over 100 µM; in the assay with IGROV-1 it was > 100 µM (inactive); in the assay with MOLT-4, > 100 µM (inactive). Also, the GI50 with NCI-H460, in the assay with OVCAR-3, in the assay on OVCAR-8, with SF-295, in the assay on SK-MEL-2 and with SN12C was > 100 µM (inactive) in each case. Besides, the GI50 in the assay on SNB-19, with SNB-75, in the assay on TK-10 and in the assay with UACC-62 was > 100 µM (inactive) in each case.
For the compound `Nc1ccc2c(c1)C(=O)N(OS(=O)(=O)c1ccccc1)C2=O`, the GI50 in the assay with ACHN was > 100 µM (inactive); in the assay on CAKI-1, > 100 µM (inactive); with DLD-1, 52.4 µM (inactive); with HCT-15, over 100 µM; in the assay on IGROV-1, > 100 µM (inactive); with NCI-H460, > 100 µM (inactive). Further, the GI50 in the assay with OVCAR-3 is > 100 µM (inactive); in the assay with OVCAR-8 it was 56.9 µM (inactive); in the assay with SF-295, > 100 µM (inactive); in the assay with SK-MEL-2, > 100 µM (inactive); with SN12C, > 100 µM (inactive); in the assay on SNB-19, > 100 µM (inactive). The GI50 with SNB-75, with TK-10 and in the assay on UACC-62 was > 100 µM (inactive) throughout.
In the case of `O=[N+]([O-])c1cc(-c2nnc(S)[nH]2)ccc1O`, the GI50 was > 100 µM (inactive) with ACHN; > 100 µM (inactive) in the assay on CAKI-1; > 100 µM (inactive) in the assay with DLD-1; 16.5 µM with HCT-15; > 100 µM (inactive) in the assay on IGROV-1; 44.4 µM (inactive) in the assay with NCI-H460. Moreover, the GI50 in the assay on SF-295, with SK-MEL-2, in the assay with SN12C, with SNB-19, in the assay on TK-10 and in the assay with UACC-62 was > 100 µM (inactive) in each case.
Take `O=C1C2=C(c3ccccc31)C(c1ccccc1)NC(S)=N2` (centres undefined): the GI50 is > 100 µM (inactive) in the assay with ACHN; 48.8 µM (inactive) with CAKI-1; 52.6 µM (inactive) in the assay with DLD-1; 37.1 µM in the assay on HCT-15; 75.3 µM (inactive) in the assay on IGROV-1; 31.4 µM (inactive) with MOLT-4. Further, the GI50 in the assay with NCI-H460 was 91.6 µM (inactive); in the assay on OVCAR-3, 31.6 µM (inactive); with OVCAR-8 it was 35.2 µM (inactive); with SF-295 it was 31.9 µM (inactive); with SK-MEL-2, 84.1 µM (inactive); with SN12C, > 100 µM (inactive). Moreover, the GI50 in the assay on SNB-19 was 38 µM (inactive); in the assay on SNB-75 it was 14.4 µM (inactive); in the assay with TK-10, > 100 µM (inactive); with UACC-62 it was 29 µM (inactive).
With `N#CNc1nc(C(=O)Nc2ccc(Cl)cc2)cc(-c2ccccc2)n1`, the GI50 in the assay with ACHN was > 100 µM (inactive); in the assay with CAKI-1, > 100 µM (inactive); with DLD-1, > 100 µM (inactive); with HCT-15, over 100 µM; in the assay on IGROV-1, > 100 µM (inactive); in the assay with MOLT-4 it was > 100 µM (inactive). Moreover, the GI50 in the assay on OVCAR-3, with OVCAR-8, in the assay with SF-295, with SK-MEL-2, in the assay with SN12C and in the assay with SNB-19 was > 100 µM (inactive) throughout. For the same compound, the GI50 in the assay with SNB-75 and with UACC-62 was > 100 µM (inactive) each time.
With `Cc1ccc(NC(=O)CC/C(CC(=O)c2ccc(F)cc2)=N\NC(=O)C(=O)NN)cc1C`, the GI50 in the assay on ACHN is > 100 µM (inactive); with CAKI-1, > 100 µM (inactive); in the assay with DLD-1 it was > 100 µM (inactive); in the assay with HCT-15 it was over 100 µM; with IGROV-1 it was > 100 µM (inactive); in the assay on NCI-H460, > 100 µM (inactive). Further, the GI50 in the assay on OVCAR-3, in the assay on OVCAR-8, in the assay with SF-295, with SK-MEL-2, in the assay with SN12C and in the assay on SNB-19 was > 100 µM (inactive) each time. Moreover, the GI50 in the assay on SNB-75, in the assay on TK-10 and in the assay with UACC-62 was > 100 µM (inactive) in each case.
For the compound `Cc1cc2c3c(c1)S(=O)(=O)c1cc(Cl)ccc1N3CCC2`, the GI50 was > 100 µM (inactive) with ACHN; > 100 µM (inactive) with BT-549; > 100 µM (inactive) in the assay on CAKI-1; > 100 µM (inactive) in the assay on DU-145; over 100 µM in the assay with HCT-15; 84.3 µM (inactive) in the assay with IGROV-1. Also, the GI50 in the assay on MOLT-4 is 57.7 µM (inactive); with NCI-H460 it was > 100 µM (inactive); with NCI/ADR-RES, > 100 µM (inactive); in the assay on OVCAR-3, > 100 µM (inactive); in the assay on OVCAR-8, > 100 µM (inactive); in the assay on SF-295, 56 µM (inactive). Besides, the GI50 with SK-MEL-2 was > 100 µM (inactive); in the assay with SN12C, > 100 µM (inactive); with SNB-19, > 100 µM (inactive); in the assay on SNB-75, 58.5 µM (inactive); in the assay on SR, > 100 µM (inactive); with TK-10, > 100 µM (inactive). Further, the GI50 in the assay with UACC-62 is > 100 µM (inactive).
For `Cc1sc2c(c1C)/C(=N\O)c1cccn1-2`, the GI50 in the assay with ACHN was 37.2 µM (inactive); in the assay with BT-549 it was 42.1 µM (inactive); in the assay with CAKI-1, 32.6 µM (inactive); in the assay with DU-145, 61 µM (inactive); with HCT-15, 81.8 µM; in the assay on IGROV-1, 24.3 µM (inactive). In addition, the GI50 was 17.3 µM (inactive) in the assay with MOLT-4; 35.1 µM (inactive) with NCI-H460; 53.3 µM (inactive) in the assay on NCI/ADR-RES; 42.9 µM (inactive) with OVCAR-3; 45.8 µM (inactive) in the assay on OVCAR-8; 54.7 µM (inactive) with SF-295. Moreover, the GI50 with SK-MEL-2 is 45.2 µM (inactive); in the assay on SN12C it was 38.5 µM (inactive); in the assay with SNB-19 it was 23.3 µM (inactive); in the assay on SNB-75, 16.2 µM (inactive); in the assay on SR, 22.6 µM (inactive); in the assay on TK-10, 43.6 µM (inactive). Moreover, the GI50 with UACC-62 is 95.7 µM (inactive).
On to `COC(=O)C1CC(C(=O)OC)c2nc3cc(C)c(C)cc3nc21` (centres undefined), for which the GI50 in the assay on ACHN was > 100 µM (inactive); in the assay on CAKI-1, > 100 µM (inactive); in the assay on DLD-1, > 100 µM (inactive); in the assay on HCT-15 it was over 100 µM; in the assay with IGROV-1 it was > 100 µM (inactive); in the assay on MOLT-4, > 100 µM (inactive). Further, the GI50 with NCI-H460, in the assay with OVCAR-3, in the assay with OVCAR-8, in the assay with SF-295, with SK-MEL-2 and with SN12C was > 100 µM (inactive) each time. The GI50 in the assay on SNB-19 was > 100 µM (inactive); in the assay with SNB-75 it was 36.3 µM (inactive); with TK-10, > 100 µM (inactive); in the assay with UACC-62, > 100 µM (inactive).
Turning to `Nc1ccc(O)c2c1C(=O)c1c(N)ccc(O)c1C2=O`, the GI50 in the assay with ACHN was > 100 µM (inactive); in the assay with CAKI-1 it was > 100 µM (inactive); in the assay with DLD-1, > 100 µM (inactive); with HCT-15, over 100 µM; with IGROV-1 it was > 100 µM (inactive); with MOLT-4 it was > 100 µM (inactive). Moreover, the GI50 in the assay with NCI-H460, with OVCAR-3, in the assay with OVCAR-8, in the assay on SF-295, in the assay with SK-MEL-2 and in the assay with SN12C was > 100 µM (inactive) each time. In addition, the GI50 with SNB-19, in the assay with SNB-75, in the assay on TK-10 and with UACC-62 was > 100 µM (inactive) each time.
